From patent publication US11590139B2, “Substituted aminopurine compounds, compositions thereof, and methods of treatment therewith” (Signal Pharmaceuticals, LLC, priority 2014, dated 2023)

Each molecule was assayed on Lox-IMVI melanoma cell line (assay: Lox-IMVI anti-proliferative assay (growth inhibition, Cell Titer-Glo)). Details: Homo sapiens; IC50 activity level in the cell-based Lox-IMVI anti-proliferative assay; read-out: Activity.
Type: cell-based, human
Procedure, shortened: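 Cells grown in RPMI + 10% FBS were exposed to compound at 0.5 nM to 10 μM (10-point, 3-fold dilution, duplicate, 0.2% DMSO final) for 72 h at 37 °C, 5% CO2. Viability was read by ATP luminescence at t0 and 72 h. IC50 came from a four-parameter logistic fit normalized to DMSO control.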

| SMILES | IC50 [µM] |
| --- | --- |
| CC(C)(C)OC(=O)N1CC[C@H](Nc2ncc3nc(Nc4c(F)cccc4F)n([C@H]4CC[C@@H](C(N)=O)CC4)c3n2)[C@H](F)C1 [Example 128, (3R,4S)-tert-butyl 4-(9-((1s,4R)-4-carbamoylcyclohexyl)-8-(2,6-difluorophenylamino)-9H-purin-2-ylamino)-3-fluoropiperidine-1-carboxylate] | > 1 |
| CO[C@H]1CC[C@H](Nc2ncc3nc(Nc4c(Cl)cc(Cl)cc4Cl)n([C@H]4CC[C@@H](C(N)=O)CC4)c3n2)CC1 [Example 77, (1s,4s)-4-(2-((1r,4r)-4-methoxycyclohexylamino)-8-(2,4,6-trichlorophenylamino)-9H-purin-9-yl)cyclohexanecarboxamide] | 0.5 to 1 |
| NC(=O)[C@H]1CC[C@@H](n2c(Nc3c(F)cccc3Cl)nc3cnc(N[C@H]4C[C@H](O)C4)nc32)CC1 [Example 281, (1s,4s)-4-(8-(2-chloro-6-fluorophenylamino)-2-((1R,3r)-3-hydroxycyclobutylamino)-9H-purin-9-yl)cyclohexanecarboxamide] | > 1 |
| CC[C@@H](CO)Nc1ncc2nc(Nc3c(Cl)cccc3Cl)n([C@H]3CC[C@@H](C(N)=O)CC3)c2n1 [Example 153, (1R,4s)-4-(8-(2,6-dichlorophenylamino)-2-((S)-1-hydroxybutan-2-ylamino)-9H-purin-9-yl)cyclohexanecarboxamide] | > 1 |
| NC(=O)[C@H]1CC[C@@H](n2c(Nc3ccc(Cl)c(F)c3F)nc3cnc(NC4CCC(F)(F)CC4)nc32)CC1 [Example 290, (1s,4s)-4-(8-(4-chloro-2,3-difluorophenylamino)-2-(4,4-difluorocyclohexylamino)-9H-purin-9-yl)cyclohexanecarboxamide] | 0.5 to 1 |
| CC(C)Nc1ncc2nc(Nc3ccc(Cl)cc3Cl)n([C@H]3CC[C@@H](C(N)=O)CC3)c2n1 [Example 96, (1s,4s)-4-(8-(2,4-dichlorophenylamino)-2-(isopropylamino)-9H-purin-9-yl)cyclohexanecarboxamide] | > 1 |
| C[C@@H](CO)Nc1ncc2nc(Nc3c(F)cc(Cl)cc3F)n([C@H]3CC[C@@H](C(N)=O)CC3)c2n1 [Example 169, (1R,4s)-4-(8-(4-chloro-2,6-difluorophenylamino)-2-((S)-1-hydroxypropan-2-ylamino)-9H-purin-9-yl)cyclohexanecarboxamide] | 0.5 to 1 |
| N#Cc1cc(Cl)c(Nc2nc3cnc(NC4CCCC4)nc3n2[C@H]2CC[C@@H](C(N)=O)CC2)c(Cl)c1 [Example 367, (1s,4s)-4-(2-(cyclopentylamino)-8-(2,6-dichloro-4-cyanophenylamino)-9H-purin-9-yl)cyclohexanecarboxamide] | < 0.25 |
| NC(=O)[C@H]1CC[C@@H](n2c(Nc3cccc(Cl)c3Cl)nc3cnc(NC4CCOCC4)nc32)CC1 [Example 62, (1s,4s)-4-(8-(2,3-dichlorophenylamino)-2-(tetrahydro-2H-pyran-4-ylamino)-9H-purin-9-yl)cyclohexanecarboxamide] | > 1 |
| CC(C)(C)OC(=O)N1CC[C@H](Nc2ncc3nc(Nc4c(F)cc(Cl)cc4F)n([C@H]4CC[C@@H](C(N)=O)CC4)c3n2)[C@H](F)C1 [Example 155, (3R,4S)-tert-butyl 4-(9-((1s,4R)-4-carbamoylcyclohexyl)-8-(4-chloro-2,6-difluorophenylamino)-9H-purin-2-ylamino)-3-fluoropiperidine-1-carboxylate] | > 1 |
| NC(=O)[C@H]1CC[C@@H](n2c(Nc3c(F)cc(Cl)cc3Cl)nc3cnc(N[C@H]4CCC[C@@H](O)C4)nc32)CC1 [Example 376, (1R,4s)-4-(8-(2,4-dichloro-6-fluorophenylamino)-2-((1S,3R)-3-hydroxycyclohexylamino)-9H-purin-9-yl)cyclohexanecarboxamide] | > 1 |
| NC(=O)[C@H]1CC[C@@H](n2c(Nc3ccc(Cl)c(F)c3F)nc3cnc(N[C@H]4C[C@@H](O)C4)nc32)CC1 [Example 310, (1s,4s)-4-(8-(4-chloro-2,3-difluorophenylamino)-2-((1s,3s)-3-hydroxycyclobutylamino)-9H-purin-9-yl)cyclohexanecarboxamide] | > 1 |
| NC(=O)[C@H]1CC[C@@H](n2c(Nc3c(F)cc(Cl)cc3F)nc3cnc(N[C@@H]4CCCOC4)nc32)CC1 [Example 188, (1S,4s)-4-(8-(4-chloro-2,6-difluorophenylamino)-2-((R)-tetrahydro-2H-pyran-3-ylamino)-9H-purin-9-yl)cyclohexanecarboxamide] | > 1 |
| C[C@@H](CO)Nc1ncc2nc(Nc3c(Cl)cc(F)cc3Cl)n([C@H]3CC[C@@H](C(N)=O)CC3)c2n1 [Example 166, (1R,4s)-4-(8-(2,6-dichloro-4-fluorophenylamino)-2-((S)-1-hydroxypropan-2-ylamino)-9H-purin-9-yl)cyclohexanecarboxamide] | 0.5 to 1 |
| NC(=O)[C@H]1CC[C@@H](n2c(Nc3c(F)ccc(Cl)c3F)nc3cnc(NC4CCC(F)(F)CC4)nc32)CC1 [Example 291, (1s,4s)-4-(8-(3-chloro-2,6-difluorophenylamino)-2-(4,4-difluorocyclohexylamino)-9H-purin-9-yl)cyclohexanecarboxamide] | 0.5 to 1 |
| NC(=O)[C@H]1CC[C@@H](n2c(Nc3c(F)ccc(F)c3F)nc3cnc(N[C@@H]4CCC[C@H]4O)nc32)CC1 [Example 260, (1S,4s)-4-(2-((1R,2R)-2-hydroxycyclopentylamino)-8-(2,3,6-trifluorophenylamino)-9H-purin-9-yl)cyclohexanecarboxamide] | > 1 |

Same assay, conditions: Homo sapiens; Lox-IMVI anti-proliferative assay, IC50 activity level; read-out: Activity

| SMILES | IC50 [µM] |
| --- | --- |
| C[C@@H](CO)Nc1ncc2nc(Nc3c(F)cc(Cl)cc3F)n([C@H]3CC[C@@](C)(C(N)=O)CC3)c2n1 [Example 550, (1R,4s)-4-(8-(4-chloro-2,6-difluorophenylamino)-2-((S)-1-hydroxypropan-2-ylamino)-9H-purin-9-yl)-1-methylcyclohexanecarboxamide] | < 0.25 |
| NC(=O)[C@H]1CC[C@@H](n2c(Nc3c(Cl)cc(Cl)cc3Cl)nc3cnc(N[C@H]4CCCC[C@@H](O)C4)nc32)CC1 [Example 444, (1R,4s)-4-(2-((1S,3R)-3-hydroxycycloheptylamino)-8-(2,4,6-trichlorophenylamino)-9H-purin-9-yl)cyclohexanecarboxamide] | > 1 |
| NC(=O)[C@H]1CC[C@@H](n2c(Nc3c(F)cc(F)cc3F)nc3cnc(N[C@H]4CCC(F)(F)C4)nc32)CC1 [Example 593, (1R,4s)-4-(2-((S)-3,3-difluorocyclopentylamino)-8-(2,4,6-trifluorophenylamino)-9H-purin-9-yl)cyclohexanecarboxamide] | 0.25 to 0.5 |
| C[C@@H]1COCC[C@@H]1Nc1ncc2nc(Nc3c(F)cc(Cl)cc3Cl)n([C@H]3CC[C@@H](C(N)=O)CC3)c2n1 [Example 506, (1R,4s)-4-(8-(2,4-dichloro-6-fluorophenylamino)-2-((3S,4S)-3-methyltetrahydro-2H-pyran-4-ylamino)-9H-purin-9-yl)cyclohexanecarboxamide] | 0.25 to 0.5 |

Same assay, conditions: Homo sapiens; Lox-IMVI melanoma cell line, anti-proliferative assay; read-out: Activity (IC50 activity level)

| SMILES | IC50 [µM] |
| --- | --- |
| N#Cc1cc(Cl)c(Nc2nc3cnc(N[C@H]4CCC[C@@H](O)C4)nc3n2[C@H]2CC[C@@H](C(N)=O)CC2)c(Cl)c1 [Example 686, (1R,4s)-4-(8-(2,6-dichloro-4-cyanophenylamino)-2-((1S,3R)-3-hydroxycyclohexylamino)-9H-purin-9-yl)cyclohexanecarboxamide] | 0.5 to 1 |
| CC(=O)N1CCC[C@@H](Nc2ncc3nc(Nc4c(Cl)cc(Cl)cc4Cl)n([C@H]4CC[C@@H](C(N)=O)CC4)c3n2)C1 [Example 710, (1S,4s)-4-(2-((R)-1-acetylpiperidin-3-ylamino)-8-(2,4,6-trichlorophenylamino)-9H-purin-9-yl)cyclohexanecarboxamide] | > 1 |
| NC(=O)[C@H]1CC[C@@H](n2c(Nc3c(Cl)cc(F)cc3Cl)nc3cnc(N[C@@H]4CCCN(c5ccccc5)C4)nc32)CC1 [Example 749, (1S,4s)-4-(8-(2,6-dichloro-4-fluorophenylamino)-2-((R)-1-phenylpiperidin-3-ylamino)-9H-purin-9-yl)cyclohexanecarboxamide] | > 1 |
| CC(C)OC(=O)N1CCC[C@@H](Nc2ncc3nc(Nc4c(F)cc(F)cc4Cl)n([C@H]4CC[C@@H](C(N)=O)CC4)c3n2)C1 [Example 767, (R)-isopropyl 3-(9-((1s,4S)-4-carbamoylcyclohexyl)-8-(2-chloro-4,6-difluorophenylamino)-9H-purin-2-ylamino)piperidine-1-carboxylate] | > 1 |
| NC(=O)[C@H]1CC[C@@H](n2c(Nc3c(Cl)cc(Cl)cc3Cl)nc3cnc(N[C@@H]4CCCN(c5ccccc5)C4)nc32)CC1 [Example 743, (1S,4s)-4-(2-((R)-1-phenylpiperidin-3-ylamino)-8-(2,4,6-trichlorophenylamino)-9H-purin-9-yl)cyclohexanecarboxamide] | > 1 |
| C[C@]1(C(N)=O)CC[C@@H](n2c(Nc3c(Cl)cc(F)cc3Cl)nc3cnc(N[C@@H]4CCC[C@@H](O)C4)nc32)CC1 [Example 621, (1S,4s)-4-(8-(2,6-dichloro-4-fluorophenylamino)-2-((1R,3R)-3-hydroxycyclohexylamino)-9H-purin-9-yl)-1-methylcyclohexanecarboxamide] | > 1 |
| N#Cc1cc(F)c(Nc2nc3cnc(NC[C@@H]4CCCC[C@@H]4O)nc3n2[C@H]2CC[C@@H](C(N)=O)CC2)c(Cl)c1 [Example 658, (1R,4s)-4-(8-(2-chloro-4-cyano-6-fluorophenylamino)-2-(((1S,2S)-2-hydroxycyclohexyl)methylamino)-9H-purin-9-yl)cyclohexanecarboxamide] | > 1 |
| C[C@]1(C(N)=O)CC[C@@H](n2c(Nc3c(F)cc(F)cc3F)nc3cnc(N[C@H]4CCC[C@@H](O)C4)nc32)CC1 [Example 625, (1R,4s)-4-(2-((1S,3R)-3-hydroxycyclohexylamino)-8-(2,4,6-trifluorophenylamino)-9H-purin-9-yl)-1-methylcyclohexanecarboxamide] | > 1 |
